Measurements published in a melting point compilation (Tetko et al.; mined from patent text by program, amines drawn as free bases though some values may be those of a salt).

| melting point | Compound |
| --- | --- |
| 168 to 170 °C | OC(Cc1ncc[nH]1)(Cn1cncn1)c1ccc(Cl)cc1Cl (stereo unspecified) |
| 112 to 116 °C | O=C1c2ccccc2CN1C1CCN(C/C=C\CC2c3ccccc3-c3ccccc32)CC1 |
| 130 to 132 °C | Cc1cc(-c2noc(CS(C)(=O)=O)n2)ccc1Br |
| 85.5 °C | CCC(C)COC(=O)Oc1ccc(-c2ccc(OC(=O)OCC(C)CC)cc2)cc1 (stereo unspecified) |
| 109 to 110 °C | CC(=O)/C(=N/O[C@H]1CC[C@H](C(=O)N(C)C)CC1)C(=O)OC(C)(C)C |
| 136 to 137 °C | CCCCCCCCCCOc1cc(C(=O)O)c(OCCCCCCCCCC)cc1C(=O)O |
| 209 to 211 °C | Cn1cc(-c2cccc([N+](=O)[O-])c2)c(=O)c(-c2cccc(C(F)(F)F)c2)c1 |
| 207 °C | Cc1cc2cc(CN3CCCCCC3)cnc2cc1NC(=O)c1ccc(-c2cc3ccccc3o2)cc1 |
| 95 to 97 °C | COC(=O)Cn1c(Cc2ccccc2)ccc(NC(=O)CCc2ccccc2)c1=O |
| 294 to 295 °C | Cc1ccc(S(=O)(=O)c2c(N)c3nccn3c3nccnc23)cc1 |
| 143 to 144 °C | O=C(Nc1ccccc1)C(CBr)CBr |
| 63 to 64 °C | COc1cc2c(cc1OC)C(=Cc1ccccc1[N+](=O)[O-])C(=O)CC2 |
| 177 to 181 °C | Cc1oc(-c2ccc(Cl)cc2)cc1C(=O)NCc1ccc2cc(OCC(=O)O)ccc2c1 |
| 90 to 91 °C | COc1cccc(OC)c1C(=O)NCCSCc1cccc(Cl)c1 |
| 262 to 263 °C | CCOP(=O)(Cc1ccc(N(C(=O)c2cc3c(s2)-c2c(SC)sc(C(N)=O)c2CC3)c2ccc(CP(=O)(OCC)OCC)cc2)cc1)OCC |
| 51.5 to 56.3 °C | CC(=N)NC/C(F)=C\CC[C@H](N)C(=O)O |
| 152 to 153 °C | COc1cc(OC)c2c(C)c(CCN3CCN(c4ccccc4F)CC3)c(=O)oc2c1 |
| 96 °C | COC(=O)c1ccc(-c2ccccn2)cc1 |
| 214 to 215 °C | CCSc1nc2c(C(=O)OC)sc(-c3ccccc3)c2[nH]1 |
| 119 to 120 °C | Cc1cccc(C(=O)Cc2ccnc(N)c2)c1 |

| melting point | Compound |
| --- | --- |
| 137 to 138 °C | O=C(O)Cc1cc(Cl)c(O)cc1F |
| 70 to 72.5 °C | COc1ccc(C(O)CSCc2ccncc2)cc1 (stereo unspecified) |
| 112 °C | O=C(Nc1cccc(I)c1)C1CC1 |
| > 270 °C | CCCn1c(=O)c2[nH]c(/C=C/c3ccc4c(c3)OCO4)nc2n(CCC)c1=O |
| 128 to 129 °C | CC(=O)NC(=O)CCc1ccc(OCCc2nc(-c3ccccc3)oc2C)cc1 |
| 136 to 138 °C | COC(=O)c1cc(O)cc(O)c1C |
| 85 to 95 °C | COC(=O)c1ccc(S(C)(=O)=O)c(C(=O)NN)c1Cl |
| 60.5 to 64.5 °C | CC(C)Oc1cc(N2C(=O)C3CCCCN3C2=O)c(F)cc1Cl (stereo unspecified) |
| 101 to 102 °C | COc1ccc(CCOc2cncc(Cl)c2)cc1OC |
| 140 to 142 °C | CNCC1Cc2cc(F)cc(-c3c(Cl)cccc3Cl)c2O1 (stereo unspecified) |
| 160 to 163 °C | CCCc1nc2c(N)nc3cc(Br)ccc3c2s1 |
| 265 to 267 °C | CCc1nccn1-c1ccc(NC(=O)c2ccc(Cl)cc2)cc1 |
| 154 to 155 °C | COC(=O)c1cc(-c2nccs2)cc2c1OC(c1ccccc1)(c1ccccc1)O2 |
| 238 to 239 °C | N#CSc1cc(Cl)c(Cl)c2sc(NC(=O)Nc3ccc(Cl)cc3)nc12 |
| 174 to 176 °C | NC(=O)CN1CCC(c2nn(-c3ccc(C(F)(F)F)cc3)c3cc(F)ccc23)CC1 |
| 145 to 146 °C | COC(=O)c1cc2c(OC)ccc(OC)c2[nH]1 |
| 64 to 65 °C | CC(C)C(O)(C=Cc1ccc([N+](=O)[O-])cc1)CC(=O)OCc1ccccc1 (racemic) |
| 148 to 150 °C | O=Cc1cn(-c2cccnc2)c2ccccc12 |
| 135 to 136 °C | CCCN(CCC)C(=O)Cn1c(-c2ccc(F)cc2)nc2cccnc21 |
| 208 to 209 °C | Clc1cccc2c(CN3CCN(c4cc5ccccc5cn4)CC3)n[nH]c12 |

| Compound | melting point |
| --- | --- |
| Clc1cncc(Cl)c1CBr | 40 to 44 °C |
